Paper PMC4078884 (Chemical science (Royal Society of Chemistry : 2010), 2014)

Key:
EcIspG = target: T1, EcIspG (Escherichia coli, UniProt P62620); assay: CW-EPR; type: binding; settings: 80 eq dithionite, 8 K
T1 sequence (P62620 1-372): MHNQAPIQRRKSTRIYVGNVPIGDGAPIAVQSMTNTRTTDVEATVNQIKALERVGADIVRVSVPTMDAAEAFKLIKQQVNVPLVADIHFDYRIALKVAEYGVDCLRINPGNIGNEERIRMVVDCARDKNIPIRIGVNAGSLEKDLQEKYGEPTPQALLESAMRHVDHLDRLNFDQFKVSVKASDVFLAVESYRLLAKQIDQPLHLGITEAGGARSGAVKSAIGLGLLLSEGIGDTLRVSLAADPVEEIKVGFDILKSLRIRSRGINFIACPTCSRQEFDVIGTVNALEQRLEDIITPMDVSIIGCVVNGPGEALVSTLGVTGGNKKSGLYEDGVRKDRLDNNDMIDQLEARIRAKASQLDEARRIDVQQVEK

PaIspG = target: T2, PaIspG (Pseudomonas aeruginosa, UniProt Q9HXJ4); assay: CW-EPR; type: binding; settings: 80 eq dithionite, 8 K
T2 sequence (Q9HXJ4 1-371): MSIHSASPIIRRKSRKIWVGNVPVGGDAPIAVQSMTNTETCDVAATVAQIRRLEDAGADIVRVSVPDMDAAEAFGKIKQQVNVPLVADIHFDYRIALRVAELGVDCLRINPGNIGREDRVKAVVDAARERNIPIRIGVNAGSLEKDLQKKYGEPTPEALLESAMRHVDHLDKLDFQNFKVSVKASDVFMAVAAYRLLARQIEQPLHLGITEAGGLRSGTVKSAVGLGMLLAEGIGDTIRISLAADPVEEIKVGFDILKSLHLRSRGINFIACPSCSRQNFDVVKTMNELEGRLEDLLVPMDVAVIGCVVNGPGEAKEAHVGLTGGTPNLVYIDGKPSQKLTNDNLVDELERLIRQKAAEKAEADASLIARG

For `C/C(=C\COP(=O)(O)OP(=O)(O)O)CS` [compound 8, thiolo-HMBPP], the CW-EPR (EcIspG) was “E. coli (A, D)” and the CW-EPR (PaIspG) was “P. aeruginosa (B, E)”.
